According to patent publication US20260015311A1, “AMINO LIPID COMPOUND, PREPARATION METHOD THEREFOR, AND USE THEREOF” (SHENZHEN SHENXIN BIOTECHNOLOGY CO., LTD., priority 2022, published 2026):

Columns and labels:
[1] = Stability of lipid nanoparticles at 25° C., DLS particle size and PDI; assay type: physicochemical; details: for particle size: preparation day (week 0)
Experimental: (§1) The amino lipid compounds of the present disclosure were mixed with DOPE, cholesterol, and PEG2000-DMG in a molar ratio of 45:10:42.5:2.5 and dissolved in absolute ethanol. By using a microinjection pump, the resultant ethanol solution and a sodium acetate solution (50 mM, pH=4.0) were mixed in a ratio of 1:3 in a microfluidic chip to prepare a crude solution of lipid nanoparticles, which were then dialyzed in 1×PBS at a controlled temperature of 4° C. for 6 h using a dialysis box (Fisher, MWCO 20,000), and filtered through a 0.22 μm microporous filter membrane before use.
(§2) Preparation of Lipid Nanoparticles: The Formulation Method 1 was Used to Prepare LNPs for Subcutaneous Administration.
Characterization of lipid nanoparticles: The particle size and PDI of the prepared lipid nanoparticles were measured by Nano-ZSZEN 3600 (Malvern). 40 μL of the LNP solution was taken for particle size measurement with circulation for three times, 30 seconds for each circulation.
(§3) The particle size measurements were carried out on the day of preparation (week 0), and after one week (week 1), two weeks (week 2), and four weeks (week 4) of storage at 25° C., and the expression intensities of Fluc mRNA delivered by subcutaneous administration were determined on the day of preparation (week 0) and after four weeks (week 4).

[2] = test system: Fluc mRNA; assay: Stability of lipid nanoparticles at 25° C., subcutaneous expression of Fluc mRNA; assay type: in vivo, mice; details: for Fluc expression change after four weeks: 25° C., week 4 versus week 0
Experimental: as §1
(§4) 9 mice were assigned randomly to each group and injected with the lipid nanoparticles at a dosage of 0.5 mg/kg by three administration routes, i.e., subcutaneous, intramuscular and tail vein injection (three mice for each administration route). After 12 hours, D-luciferin potassium salt (200 μL, 10 mg/mL) was injected into each mouse through the tail vein. After 10 minutes, the total fluorescence intensity of each mouse was observed on a living imaging system (IVIS-200, Xenogen) and taken photographs for record. The expression intensities of Fluc mRNA delivered by representative amino lipid compounds through the three administration routes are shown in Table 2-4. MC3 was used as a control and SM102 was used as a comparative compound.
as §2, §3

[3] = test system: liver; assay: Targeting assay, fluorescence in liver after intramuscular injection; assay type: in vivo, mice; details: 15 μg mRNA per animal, 6 h after injection, dissected liver
Experimental: The lipids were mixed with DSPC, CHO-HP, M-DMG2000 (i.e. PEG2000-DMG) in a molar ratio of 50:10:38.5:1.5 and dissolved in absolute ethanol. mRNA was dissolved in a sodium acetate solution (0.2M, pH=5.0). The samples of various prescriptions were prepared at a water phase:alcohol phase=9 ml/min: 3 ml/min by using a microfluidic equipment (MPE-L2) and a chip (SN.000035). The two phases were mixed by injecting them into the microfluidic chip according to the interface requirements, and then the drug solution was loaded into a 100KD dialysis bags, immersed in a beaker containing 1 L dialysis solution and wrapped with aluminum foil, and dialyzed at 100 rpm for 1 h at room temperature, and then the dialysis solution was replaced and the dialysis continued for 1 h.
Formulation of dialysis solution: 1×PBS+8% sucrose solution: 2 packets of 1×PBS powder were taken into a beaker, dissolved with 2 L DEPC water, added with 160 g of sucrose additionally, and mixed to obtain the 1×PBS+8% sucrose solution.
The mass ratio of mRNA:Lipids in the obtained lipid nanoparticles were about 1:10.
Fluorescent protein-encoding mRNA-LNP preparations containing Compound (I-6-II), MC3 or SM102, respectively were prepared by using the formulation method of mRNA lipid nanoparticle (LNP) preparations as described above, selecting a fluorescent protein-encoding mRNA as the mRNA and the compound (I-6-II), MC3 or SM102, respectively as the lipid.
Each preparation to be tested was administered to mice by intramuscular injection, with each animal receiving 15 μg mRNA preparation sample. 6 h after sample injection, the mice were anesthetized by isoflurane inhalation, and injected intraperitoneally with 200 μL of D-Luciferin (concentration 10 mg/ml) luciferase development substrate. […] After development of living imaging of the intramuscularly injected animals, they were immediately dissected, followed by observation of the fluorescence in the liver immediately after the dissection.

[4] = test system: Fluc mRNA; assay: In vivo delivery of luciferase mRNA (Fluc mRNA) by lipid nanoparticles, living imaging; design: species or system BALB/c mice; details: after 12 hours, total fluorescence
Experimental: as §1
(§5) The formulation method was the same as the formulation method 1, except that the molar ratio of the amino lipid compounds to DSPC, cholesterol and PEG2000-DMG was 50:10:38.5:1.5.
The lipid nanoparticles prepared according to the above formulation method 1 or 2 were used in the biological experiments below for evaluating the performances of in vivo delivery of luciferase mRNA (Fluc mRNA). For the lipid nanoparticles obtained in the formulation method 1, the mass ratio of the amino lipid compounds to the luciferase mRNA was about 10:1, and the lipid nanoparticles were administered subcutaneously; and the lipid nanoparticles obtained in the formulation method 2 were administered by tail vein and intramuscular injection.
6-week-old female BALB/c mice weighed about 20 g were selected and fed in a SPF-grade feeding room. Animal tests were conducted strictly according to the guidelines of National Health institutions and the requirements of animal ethics.
as §4

[5] = test system: influenza mRNA vaccine; assay: In vivo delivery of influenza mRNA vaccine and immunity, IgG ELISA; design: species or system BALB/c mice; details: influenza mRNA LNP, injected subcutaneously 0.5 mg/kg Day 0 and Day 7, serum Day 21, FIG. 2
[6] = test system: Fluc mRNA; assay: Activity of lipid nanoparticles of formulation method 2, Fluc mRNA by intramuscular administration; assay type: in vivo, BALB/c mice
Experimental: as §5, §4
Preparation of Lipid Nanoparticles: LNPs were Prepared Using the Formulation Method 2 for Intramuscular Administration.
The measurement method was the same as that of Test Example 1.

[7] = test system: OVA protein; assay: In vivo delivery of ovalbumin mRNA and immunity, IgG ELISA; design: species or system BALB/c mice; details: OVA mRNA LNP, injected intramuscularly 0.5 mg/kg Day 0 and Day 7, serum Day 21, FIG. 1
Experimental: as §1, with “compounds of formula (I)” for “compounds”, “of 50:10:38.5:1.5” for “of 45:10:42.5:2.5”, “ethanol. Ovalbumin mRNA (OVA mRNA) was dissolved in a sodium acetate solution (50 mM, pH=4.0).” for “ethanol.”, “and the” for “and a”
The mass ratio of the amino lipid compounds to the ovalbumin mRNA (OVA mRNA) in the obtained lipid nanoparticles was about 10:1.
6-week-old female BALB/c mice weighed about 20 g were selected and fed in a SPF-grade feeding room. Animal tests were conducted strictly according to the guidelines of National Health institutions and the requirements of animal ethics. […]
A flat-bottomed 96-well plate (Nunc) was pre-coated with OVA protein at a concentration of 0.5 μg protein per well in a 50 mM carbonate buffer (pH 9.6) at 4° C., and allowed to stay overnight, and then blocked with 5% glycine. […] After addition of the HRP substrate, the absorbance at 450 nm was measured on an ELISA plate reader (Bio-Rad).

[8] = week 0, subcutaneous administration
[9] = week 4, storage at 25° C., subcutaneous administration
[10] = intramuscular injection, formulation method 2, 0.5 mg/kg
[11] = subcutaneous administration, formulation method 1, 0.5 mg/kg
[12] = tail vein administration, formulation method 2, 0.5 mg/kg

SMILES | particle size [1] | Z-Average ([1]; week 0 (day of preparation)) [nm·days] | PDI ([1]; week 1, storage at 25° C.) | Z-Average ([1]; week 1, storage at 25° C.) [nm·days] | PDI ([1]; week 2, storage at 25° C.) | Z-Average ([1]; week 2, storage at 25° C.) [nm·days] | PDI ([1]; week 4, storage at 25° C.) | Z-Average ([1]; week 4, storage at 25° C.) [nm·days] | Fluc expression change after four weeks [2] | Fluc Expression intensities [2, 8] | Fluc Expression intensities [2, 9] | fluorescence intensity in liver [3] | Fluorescence intensity (expression intensity of Fluc mRNA) [4, 10] [E + 07] | Fluorescence intensity (expression intensity of Fluc mRNA) [4, 11] | Fluorescence intensity (expression intensity of Fluc mRNA) [4, 12] | IgG antibody titers [5] | particle size change after four weeks of storage ([1]; 25° C., week 4 versus week 0) | Fluorescence intensity (expression intensity of Fluc mRNA) [6] [E + 07] | IgG antibody titers [7]
CCCCCCCCCOC(=O)CCCCCCCN(CCO)CCCCCCCC(=O)OC(CCCCCCCC)CCCCCCCC [SM102, reference compound] | about 100 nm | 120 | 0.16 | 145 | 0.21 | 195 | 0.28 | 245 | decreased significantly | 2.4E+07 | 3.6E+06 | 3.23E+06 | 4.6 | 2.4E + 07 | 7.4E + 06 | – | – | – | –
CCCCCCCC/C=C\CCCCCCCC(=O)OCCCCCCCCN(CCCCCCOC(=O)C(CCCCCC)CCCCCCCC)C1CCCC(O)C1 (stereo not drawn) [Compound 10] | – | – | – | – | – | – | – | – | – | – | – | – | – | 1.1E + 07 | – | comparable to those of SM102 | – | – | –
CCCCCCCCCCCOC(=O)CCCCCN(CCCCCCCC(=O)OC(CCCCCCCC)CCCCCCCC)C1CCCC(O)C1 (stereo not drawn) [Compound 7] | about 100 nm | 95 | 0.05 | 105 | 0.06 | 115 | – | 120 | did not decrease significantly | 2.9E+08 | 2.6E+08 | – | 3.7 | 2.9E + 08 | 2.9E + 07 | – | did not increase significantly | 3.7 | stronger immune response
CCCCCCCCCCCOC(=O)CCCCCN(CCCCCCCC(=O)OC(CCCCCCCC)CCCCCCCC)C1CC(O)C1 (stereo not drawn) [Compound 2] | – | – | – | – | – | – | – | – | – | – | – | – | 1.3 | 1.9E + 08 | 2.9E + 06 | – | – | – | comparable to those of MC3 and SM102
CCCCC/C=C\C/C=C\CCCCCCCCC(CCCCCCCC/C=C\C/C=C\CCCCC)OC(=O)CCCN(C)C [MC3, reference compound] | – | – | – | – | – | – | – | – | – | – | – | 1.23E+05 | 2.7 | 3.7E + 06 | 2.7E + 07 | lowest IgG antibody titers | – | – | –
